Assay results taken from patent US4870002A, “Method of prevention of oxidative injury to cells” (priority 1985, dated 1989).
Entries after “also recorded” stand apart in the source; their conditions may differ. Where two headings read alike, the source gives them in different places.

Experiments:
pig RBCs = test: Thermal fragility / hemolysis of RBCs (410 nm absorbance of supernatant); assay type: cell-based
Description: Blood was collected from Landrace-Duroc swine from a closed herd. Pigs from this herd had previously expressed episodes of porcine stress syndrome (malignant hyperthermia) following halothane anesthesia. The blood was collected into acidic citrated dextrose solution in standard blood bags. The blood was diluted 1:10 in phosphate (0.1M) buffered saline (PBS), pH 7.4, in 10 ml aliquots, centrifuged in a clinical centrifuge, and the erythrocytes were resuspended in fresh PBS. The cells were stored at 4° C. until used in the various assays. The post-collection chronological age of the RBCs used for a particular assay is noted in the results for each assay. The cells were counted in an automated cell counter (Coulter ZBI, Coulter Electronics, Inc., Hialeah, Fla. 33010).
Red blood cells were heated in 1 or 1.5 ml aliquots of PBS pH 7.4 with or without additional reagents in cellulose nitrate or polypropylene centrifuge tubes. Two concentrations of cells were used as indicated in the results. Heating was accomplished by three methods: microwave radiation, hot air, or water bath heating. The microwave device was a circularly polarized waveguide powered by a 1-kw S-band (microwave) amplifier (Model 10704,MCL, Inc., La Grange, Ill.). The heating of the sample at a specific absorption rate (SAR) of 91±4 W/kg (continuous wave (CW), 2450MHz) was offset by an air-cooling system that maintained a constant temperature. This system has been previously described in greater detail in Kiel, J. L. and D. N. Erwin, "Microwave and thermal interactions with oxidative hemolysis", 16 Physiol. Chem. Phys. Med. NMR, 317-323 (1984), which reference is hereby incorporated in its entirety by this specific reference thereto. […] The temperature was held within ±0.2° C. by this system. In the absence of microwave radiation, the temperature was held constant by hot air alone. The microwave/hot air system was brought to 37° C. for 15 min. prior to raising the temperature to 43° C. by microwaves or hot hot air. The water bath heating held the temperature within ±0.5° C. Heating times were 10, 15, or 30 min. The temperatures examined were 37°, 43°, 45°, or 48°.
Hemoglobin released into the supernatants of the heated cells were determined by the method described in the above-incorporated reference of Kiel and Erwin (1984). In brief, the supernatants were collected following centrifugation in a clinical centrifuge, diluted 1:2 in PBS, pH 7.4, and the optical absorbances at 410 nm were determined in a dual beam spectrophotometer. Pyruvate, lactate, inosine, hydrogen peroxide, mimosine, and/or 3-amino-L-tyrosine were added to the samples as indicated in Tables 1-3 and 9-12. All reagents were diluted in PBS and the final volumes of the samples were constant.

porcine RBCs = test: Nonspecific binding of Lu-BSA to porcine RBCs (base-activated chemiluminescence); assay type: cell-based, pig; conditions: for activation at 1490 µM / inhibition at 1490 µM: Sus scrofa; for activation at 1490 µM: read-out: Percent difference from control
Description: Blood was collected from Landrace-Duroc swine from a closed herd. Pigs from this herd had previously expressed episodes of porcine stress syndrome (malignant hyperthermia) following halothane anesthesia. The blood was collected into acidic citrated dextrose solution in standard blood bags. The blood was diluted 1:10 in phosphate (0.1M) buffered saline (PBS), pH 7.4, in 10 ml aliquots, centrifuged in a clinical centrifuge, and the erythrocytes were resuspended in fresh PBS. The cells were stored at 4° C. until used in the various assays. The post-collection chronological age of the RBCs used for a particular assay is noted in the results for each assay. The cells were counted in an automated cell counter (Coulter ZBI, Coulter Electronics, Inc., Hialeah, Fla. 33010). Nonspecific binding of Lu-BSA to porcine RBCs was measured following treatment with hydrogen peroxide, pyruvate, and/or 3-amino-L-tyrosine at 4°, 37°, or 45° C. The exposure times for those agents were 15 min, 30 min, or 72 hours. The reagents were removed by centrifugation. Three binding protocols were followed: (1) 0.25 ml of 1:20 RBCs (19 days post collection) were incubated with 0.25 ml of 1 mg/ml Lu-BSA in PBS, pH 6.9, for 30 min at 37° C. and washed (Table 1); (2) 0.05 ml of packed RBCs (less than 24 hours post collection) were resuspended in 0.2 ml of the Lu-BSA solution and incubated overnight at 4° C. […] The cells in all three protocols were washed once in PBS, pH 7.4, and resuspended in PBS to final dilutions of 1:20 for (1) and 1:30 for (2) and (3). Following this preparation, 100 μl of each cell suspension were added to 500 μl of PBS, pH 7.4, in a scintillation vial. The vial was placed in the photometer and the solution was activated by the addition of 100 μl 0.1N NaOH. The settings for the photometer were as previously described for the Con A-Lu-BSA.

[1] = system: T cell (spleen) peroxidase; test: Inhibition of T cell (spleen) peroxidase activity; assay type: biochemical
Novikoff hepatoma [2] = test: Effect of peroxidase inhibitor on ICCOPS-promoted hepatoma regression; assay type: in vivo, rat
Description: Four of the animals were also injected with 100 μg of 3-aminotyrosine.

Novikoff hepatoma [3] = test: Enhancement of tumor growth by aminotyrosine after dilute hepatoma cell challenge; assay type: in vivo, rat; conditions: 1 mg i.p. daily for five days; ninth day following inoculation; four adult male rats; controls no tumor
Description: In order to evaluate whether or not endogenous peroxidases play a role in the natural resistance to neoplastic growth, we injected some rats with a potent inhibitor of the cytotoxic activity of peroxidases and subsequently challanged the animals with a suspension of hepatoma cells.
Four adult male rats were injected i.p. with 1 mg of 3-aminotyrosine in 1 ml of water. Four control rats were injected with 1 ml of water. The following day all rats were injected with 1 ml of a dilute Novikoff hepatoma cell suspension; the number of cells being normally insufficient to produce tumor growth. On the same day, an additional 1 mg aminotyrosine was administered to the rats that received the inhibitor the previous day and this was repeated for three more days. The four control rats similarly received water injections.
On the ninth day following the inoculation with tumor, all rats were sacrificed and examined for the presence of tumor. No tumor was present in any of the control animals.

[4] = 1.49 mM preincubation and pyruvate 1.33 mM

Structure (SMILES): Nc1cc(C[C@H](N)C(=O)O)ccc1O [3-aminotyrosine, 3-amino-L-tyrosine]
- Percent difference from controls (corrected), 4° C. (pig RBCs; 74 μM, 48° C. 30 min): -0.8%
- Percent difference from controls (corrected), 48° C. (pig RBCs; 74 μM, 48° C. 30 min): -38.3%
- 410 nm absorbance, Actual (pig RBCs; 74 μM, 48° C. 30 min, RBCs 20 days post collection, 1.4×10^9 per ml): 0.491 ± 0.032
- 410 nm absorbance, Corrected (pig RBCs; 74 μM, 48° C. 30 min, corrected for RBC dilution): 0.368
- effect on thermal hemolysis, in words (pig RBCs; 74 μM, 48° C. for 30 min): suppressed the thermal hemolysis to the level of the 4 °C control; also recorded: powerful inhibitor
- effect on thermal hemolysis, in words (pig RBCs; 1.49 mM, 45° C.): did not significantly inhibit
- hemolysis, optical density of supernatants (1:2 dilution) at 410 nm (pig RBCs; 3-amino-L-tyrosine and H2O2 at 37° C., 4° C. control 0.243±0.004): 0.261±0.007
- hemolytic value (pig RBCs; preincubation with 3-amino-L-tyrosine alone (1.49 mM, 4° C., 72 hours)): 0.452±0.02
- spontaneous hemolysis reading (pig RBCs; pyruvate and 3-amino-L-tyrosine, 37° C.): 0.326±0.03
- CL (counts/30 s) (porcine RBCs; [4]): 964 ± 230 counts/30 s
- Percent difference from control (porcine RBCs; [4]): 9%
- Lu-BSA binding above the 37° C. control (porcine RBCs; 1.49 mM with hydrogen peroxide 11.7 mM, 37° C.): ≤ 14%
- CL (30 s) (porcine RBCs; 1.49 mM with hydrogen peroxide 11.7 mM, 37° C., 30 min): 663 ± 145 counts/30 s
- Percent difference from control (porcine RBCs; 1.49 mM with hydrogen peroxide 11.7 mM, 37° C., 30 min, vs 4° C. control): 74%
- CL (30 s) (porcine RBCs; 1.49 mM, 45° C., 30 min): 550 ± 126 counts/30 s
- CL (counts/30 s) (porcine RBCs; 1.49 mM, preincubated at 4° C. for 72 h, RBCs 72 hours post collection): 794 ± 156 counts/30 s
- activation at 1490 µM (porcine RBCs; 0.5 h, 1.49 mM, 45° C., 30 min, vs 4° C. control): 45%
- activation at 1490 µM (porcine RBCs; 72 h, 1.49 mM, preincubated at 4° C. for 72 h): -10%
- inhibition at 1490 µM (porcine RBCs; 1.49 mM, hydrogen peroxide 11.7 mM, 37° C., read-out: inhibition of Lu-BSA binding induced by hydrogen peroxide): 51%
- inhibition at 1490 µM (porcine RBCs; RBCs stored at 4° C. in 1.49 mM for 72 hours, read-out: less Lu-BSA bound than RBCs stored in PBS): 10%
- protection from the effects of pyruvate (Lu-BSA binding), in words (porcine RBCs; cells preincubated in 1.49 mM, then pyruvate 1.33 mM): protected them from the effects of pyruvate
- effect on T cell (spleen) peroxidase activity, in words [1]: inhibit
- effect on the action of ICCOPS, in words (Novikoff hepatoma [2]; 100 μg injected into ICCOPS-treated hepatoma-bearing rats): inhibited the action of ICCOPS
- outcome, in words (Novikoff hepatoma [2]; four rats receiving ICCOPS and 100 μg 3-aminotyrosine): eventually died of the tumor
- presence of tumor, in words (Novikoff hepatoma [3]): had developed tumor growth
